# Patent US11702404B2, “GLP-1R modulating compounds” (priority 2019, dated 2023)
# Read-outs that look alike come from different tables or passages of the source.
# How the values were obtained:
# [1] = Microsomal stability, human liver microsomes (predicted hepatic clearance); details: predicted from in vitro microsomal stability data
# GLP-1R = GLP-1R (Homo sapiens, UniProt P43220); test: GLP-1R activation: cAMP increase in CHO cells stably expressing GLP-1R; assay type: cell-based
# [2] = cAMP increase, CHO cells stably expressing GLP-1R, 10 point dose response, 30 minutes incubation, read-out: EC50
# Sequence of GLP-1R (P43220 24-463): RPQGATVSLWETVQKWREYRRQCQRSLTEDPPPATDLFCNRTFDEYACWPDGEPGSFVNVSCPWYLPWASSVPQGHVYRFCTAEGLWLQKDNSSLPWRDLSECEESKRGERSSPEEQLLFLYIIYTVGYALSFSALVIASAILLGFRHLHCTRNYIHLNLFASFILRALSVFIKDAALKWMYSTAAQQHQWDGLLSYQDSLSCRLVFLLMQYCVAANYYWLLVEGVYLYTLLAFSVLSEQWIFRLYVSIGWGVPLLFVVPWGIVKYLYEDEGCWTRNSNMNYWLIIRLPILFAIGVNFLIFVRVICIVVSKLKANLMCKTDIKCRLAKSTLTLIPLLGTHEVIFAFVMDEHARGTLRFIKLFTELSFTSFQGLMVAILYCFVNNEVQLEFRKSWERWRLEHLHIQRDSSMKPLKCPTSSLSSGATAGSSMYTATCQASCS
SMILES,Predicted Hepatic Clearance (Pred. Cl.) [1],EC50 (GLP-1R; [2]),EC50 (GLP-1R; EC50 (nM))
CN1CCO[C@H](Cn2c(Cc3cc(F)c(-c4cccc(OCc5ccc(C#N)cc5F)n4)cc3F)nc3ccc(C(=O)O)cc32)C1 [Example 639],5 mL/min/kg,78.2 nM,
"N#Cc1ccc(COc2cccc(-c3ccc(Cc4nc5ccc(C(=O)O)cc5n4CC4(c5cccnc5)CC4)c(F)c3)n2)c(F)c1 [Example 292, 2-(4-(6-((4-cyano-2-fluorobenzyl)oxy)pyridin-2-yl)-2-fluorobenzyl)-1-((1-(pyridin-3-yl)cyclopropyl)methyl)-1H-benzo[d]imidazole-6-carboxylic acid]",9.5 mL/min/kg,49.4 nM,
"COCCn1c(Cc2ccc(-c3cccc(OCc4nccn4C)n3)cc2F)nc2ccc(C(=O)O)cc21 [Example 512, 2-(2-fluoro-4-(6-((1-methyl-1H-imidazol-2-yl)methoxy)pyridin-2-yl)benzyl)-1-(2-methoxyethyl)-1H-benzo[d]imidazole-6-carboxylic acid]",7.67 mL/min/kg,6560 nM,
"N#Cc1ccc(COc2cccc(-c3ccc(Cc4nc5ccc(C(=O)O)cc5n4C[C@@H]4CCO4)cc3F)n2)c(F)c1 [Example 523, (S)-2-(4-(6-((4-cyano-2-fluorobenzyl)oxy)pyridin-2-yl)-3-fluorobenzyl)-1-(oxetan-2-ylmethyl)-1H-benzo[d]imidazole-6-carboxylic acid]",5 mL/min/kg,0.51 nM,
"COCCn1c(Cc2ccc(-c3csc(OCc4ccc(C#N)cc4F)n3)cc2F)nc2ccc(C(=O)O)cc21 [Example 26, 2-(4-(2-((4-cyano-2-fluorobenzyl)oxy)thiazol-4-yl)-2-fluorobenzyl)-1-(2-methoxyethyl)-1H-benzo[d]imidazole-6-carboxylic acid]",4.67 mL/min/kg,115 nM,
"N#Cc1ccc(COc2cccc(-c3ccc(Cc4nc5cc(F)c(C(=O)O)cc5n4CC4(CF)CC4)c(F)c3)n2)c(F)c1 [Example 221, 2-(4-(6-((4-cyano-2-fluorobenzyl)oxy)pyridin-2-yl)-2-fluorobenzyl)-5-fluoro-1-((1-(fluoromethyl)cyclopropyl)methyl)-1H-benzo[d]imidazole-6-carboxylic acid]",3.5 mL/min/kg,5.28 nM,
"COCCn1c(Cc2ccc(-c3cccc(OCc4ncc(Cl)s4)n3)cc2F)nc2ccc(C(=O)O)cc21 [Example 592, 2-(4-(6-((5-chlorothiazol-2-yl)methoxy)pyridin-2-yl)-2-fluorobenzyl)-1-(2-methoxyethyl)-1H-benzo[d]imidazole-6-carboxylic acid]",12 mL/min/kg,33.3 nM,
"COCCn1c(Cc2ccc(-c3cccc(OCc4ccc(C#N)cc4F)n3)c(C)c2)nc2ccc(C(=O)O)cc21 [Example 20, 2-{[4-[6-[(4-cyano-2-fluoro-phenyl)methoxy]-2-pyridyl]-3-methyl-phenyl]methyl}-3-(2-methoxyethyl)benzimidazole-5-carboxylic acid]",2.33 mL/min/kg,,24.1 nM
"O=C(O)c1ccc2nc(Cc3ccc(-c4cccc(OCc5ccc(Cl)cc5F)n4)c(F)c3)n(CC3(CF)CC3)c2c1 [Example 535, 2-(4-(6-((4-chloro-2-fluorobenzyl)oxy)pyridin-2-yl)-3-fluorobenzyl)-1-((1-(fluoromethyl)cyclopropyl)methyl)-1H-benzo[d]imidazole-6-carboxylic acid]",4.17 mL/min/kg,0.66 nM,
"CCn1cncc1Cn1c(Cc2ccc(-c3ccc(F)c(OCc4ccc(Cl)cc4F)c3)cc2F)nc2ccc(C(=O)O)cc21 [Example 466, 2-((3′-((4-chloro-2-fluorobenzyl)oxy)-3,4′-difluoro-[1,1′-biphenyl]-4-yl)methyl)-1-((1-ethyl-1H-imidazol-5-yl)methyl)-1H-benzo[d]imidazole-6-carboxylic acid]",3.83 mL/min/kg,1.87 nM,
"COCCn1c(Cc2cc(F)c(-c3cccc(OCc4ccc(-c5ncccn5)cc4F)n3)cc2F)nc2ccc(C(=O)O)cc21 [Example 911, 2-[[2,5-difluoro-4-[6-[(2-fluoro-4-pyrimidin-2-yl-phenyl)methoxy]-2-pyridyl]phenyl]methyl]-3-(2-methoxyethyl)benzimidazole-5-carboxylic acid]",1.83 mL/min/kg,55.6 nM,
"N#Cc1ccc(COc2cccc(-c3ccc(Cc4nc5ccc(C(=O)O)cc5n4C[C@H]4CCCO4)c(F)c3)n2)c(F)c1 [Example 198, (R)-2-(4-(6-((4-cyano-2-fluorobenzyl)oxy)pyridin-2-yl)-2-fluorobenzyl)-1-((tetrahydrofuran-2-yl)methyl)-1H-benzo[d]imidazole-carboxylic acid]",5.17 mL/min/kg,8.69 nM,
N#Cc1ccc(COc2cccc(-c3cc(F)c(Cc4nc5ccc(C(=O)O)cc5n4C4COCC4(F)F)cc3F)n2)c(F)c1 (stereo not drawn) [Example 612],3.83 mL/min/kg,0.22 nM,
"COCCn1c(Cc2cc(F)c(-c3cccc(OCc4ccc(Cl)cc4F)n3)cc2F)nc2ccc(C(=O)O)cc21 [Example 563, 2-(4-(6-((4-chloro-2-fluorobenzyl)oxy)pyridin-2-yl)-2,5-difluorobenzyl)-1-(2-methoxyethyl)-1H-benzo[d]imidazole-6-carboxylic acid]",3.67 mL/min/kg,1 nM,
"COCCn1c(Cc2c(F)cc(-c3nccnc3OCc3ccc(C#N)cc3F)cc2F)nc2ccc(C(=O)O)cc21 [Example 177, 2-(4-(3-((4-cyano-2-fluorobenzyl)oxy)pyrazin-2-yl)-2,6-difluorobenzyl)-1-(2-methoxyethyl)-1H-benzo[d]imidazole-carboxylic acid]",7 mL/min/kg,335 nM,
N#Cc1ccc(COc2cccc(-c3cc(F)c(Cc4nc5ccc(C(=O)O)cc5n4CC4(F)CCOCC4)cc3F)n2)c(F)c1 [Example 713],2.5 mL/min/kg,5.76 nM,
"COC(Cn1c(Cc2ccc(-c3cccc(OCc4ccc(C#N)cc4F)n3)cc2F)nc2ccc(C(=O)O)cc21)C(=O)Nc1nccs1 (single isomer, unassigned) [Example 338, 2-(4-(6-((4-cyano-2-fluorobenzyl)oxy)pyridin-2-yl)-2-fluorobenzyl)-1-(2-methoxy-3-oxo-3-(thiazol-2-ylamino)propyl)-1H-benzo[d]imidazole-6-carboxylic acid]",13 mL/min/kg,2510 nM,
"C[C@@]1(Cn2c(Cc3ccc(-c4cccc(OCc5ccc(C#N)cc5F)n4)cc3F)nc3ccc(C(=O)O)cc32)CCO1 [Example 105, (S)-2-(4-(6-((4-cyano-2-fluorobenzyl)oxy)pyridin-2-yl)-2-fluorobenzyl)-1-((2-methyloxetan-2-yl)methyl)-1H-benzo[d]imidazole-6-carboxylic acid]",6.33 mL/min/kg,0.45 nM,
"COCCn1c(Cc2ccc(-c3cccc(OCc4cccc(C(C)C)c4OC)n3)cc2F)nc2ccc(C(=O)O)cc21 [Example 157, 2-(2-fluoro-4-(6-((3-isopropyl-2-methoxybenzyl)oxy)pyridin-2-yl)benzyl)-1-(2-methoxyethyl)-1H-benzo[d]imidazole-6-carboxylic acid]",7.67 mL/min/kg,534 nM,
N#Cc1ccc(COc2nc(-c3cc(F)c(Cc4nc5c(F)cc(C(=O)O)cc5n4C[C@@H]4CCO4)cc3F)ccc2F)c(F)c1 [Example 768],2.75 mL/min/kg,0.04 nM,
N#Cc1ccc(COc2nc(-c3ccc(Cc4nc5c(F)cc(C(=O)O)cc5n4C[C@@H]4CCO4)cc3)ccc2F)c(F)c1 [Example 675],2.83 mL/min/kg,0.16 nM,
"COCCn1c(Cc2c(F)cc(-c3cccc(OCc4ccc(C#N)cc4F)n3)cc2C#N)nc2ccc(C(=O)O)cc21 [Example 537, 2-(2-cyano-4-(6-((4-cyano-2-fluorobenzyl)oxy)pyridin-2-yl)-6-fluorobenzyl)-1-(2-methoxyethyl)-1H-benzo[d]imidazole-6-carboxylic acid]",3.3 mL/min/kg,,6.89 nM
N#Cc1ccc(COc2cccc(-c3cc(F)c(Cc4nc5ccc(C(=O)O)cc5n4CC45COCC4C5)cc3F)n2)c(F)c1 (stereo not drawn) [Example 704],1.83 mL/min/kg,0.98 nM,
"O=C(O)c1ccc2nc(Cc3ccc(-c4ccnc(OCc5ccc(Cl)cc5F)n4)c(F)c3)n(CC3(CF)CC3)c2n1 [Example 318, 2-(4-(2-((4-chloro-2-fluorobenzyl)oxy)pyrimidin-4-yl)-3-fluorobenzyl)-3-((1-(fluoromethyl)cyclopropyl)methyl)-3H-imidazo[4,5-b]pyridine-5-carboxylic acid]",<1.83 mL/min/kg,1.07 nM,
"N#CCC1(Cn2c(Cc3ccc(-c4ccnc(OCc5ccc(C#N)cc5F)n4)c(F)c3)nc3c(F)cc(C(=O)O)cc32)CC1 [Example 303, 2-(4-(2-((4-cyano-2-fluorobenzyl)oxy)pyrimidin-4-yl)-3-fluorobenzyl)-1-((1-(cyanomethyl)cyclopropyl)methyl)-4-fluoro-1H-benzo[d]imidazole-6-carboxylic acid]",4 mL/min/kg,1.33 nM,
"N#Cc1ccc(COc2nccc(-c3ccc(Cc4nc5ccc(C(=O)O)nc5n4CC4(CF)CC4)c(F)c3)n2)c(F)c1 [Example 359, 2-(4-(2-((4-cyano-2-fluorobenzyl)oxy)pyrimidin-4-yl)-2-fluorobenzyl)-3-((1-(fluoromethyl)cyclopropyl)methyl)-3H-imidazo[4,5-b]pyridine-5-carboxylic acid]",<1.83 mL/min/kg,3.09 nM,
"COc1cc(C#N)ccc1COc1cccc(-c2cc(F)c(Cc3nc4ccc(C(=O)O)cc4n3CC3(CC#N)CC3)cc2F)n1 [Example 427, 2-(4-(6-((4-cyano-2-methoxybenzyl)oxy)pyridin-2-yl)-2,5-difluorobenzyl)-1-((1-(cyanomethyl)cyclopropyl)methyl)-1H-benzo[d]imidazole-6-carboxylic acid]",<1.83 mL/min/kg,0.06 nM,
